Measured values published in the kinase profiling compilation of Christmann-Franck et al. (2016).
Values joined by “and” are separate entries in the source; they are usually repeats but may differ in a detail not shown here. Equal entries are not always repeated.

Assays:
AURKB (human) = AURKB (human) (UniProt Q96GD4)
BTK (human) = BTK (human) (UniProt Q06187)
CAMKK2 (human) = CAMKK2 (human) (UniProt Q96RR4)
CSK (human) = CSK (human) (UniProt P41240)
DYRK1A (human) = DYRK1A (human) (UniProt Q13627)
EPHA2 (human) = EPHA2 (human) (UniProt P29317)
EPHB3 (human) = EPHB3 (human) (UniProt P54753)
GSK3B (human) = GSK3B (human) (UniProt P49841)
IGF1R (human) = IGF1R (human) (UniProt P08069)
MAP2K1 (human) = MAP2K1 (human) (UniProt Q02750)
MAPK12 (human) = MAPK12 (human) (UniProt P53778)
MAPK8 (human) = MAPK8 (human) (UniProt P45983); settings: compound 1.0 µM
MAPK9 (human) = MAPK9 (human) (UniProt P45984); settings: compound 1.0 µM
MAPKAPK2 (human) = MAPKAPK2 (human) (UniProt P49137)
MAPKAPK5 (human) = MAPKAPK5 (human) (UniProt Q8IW41)
MKNK2 (human) = MKNK2 (human) (UniProt Q9HBH9)
MST4 (human) = MST4 (human) (UniProt Q9P289)
NEK6 (human) = NEK6 (human) (UniProt Q9HC98); settings: compound 1.0 µM
PDPK1 (human) = PDPK1 (human) (UniProt O15530)
PIM1 (human) = PIM1 (human) (UniProt P11309)
PKN2 (human) = PKN2 (human) (UniProt Q16513)
PLK1 (human) = PLK1 (human) (UniProt P53350)
PRKAA1 or PRKAA2 (rat) = settings: accession and sequence are those of the human protein
PRKCA (human) = PRKCA (human) (UniProt P17252)
PRKCZ (human) = PRKCZ (human) (UniProt Q05513)
RPS6KA5 KD1 KD2 (human) = RPS6KA5 KD1 KD2 (human) (UniProt O75582); settings: compound 1.0 µM
[1] = tested on: SGK1 (human), O00141 [S422D]
STK3 (human) = STK3 (human) (UniProt Q13188)
TBK1 (human) = TBK1 (human) (UniProt Q9UHD2)
PI4KA (human) = PI4KA (human) (UniProt P42356)

PDPK1 (human), sequence (O15530 whole entry, looked up): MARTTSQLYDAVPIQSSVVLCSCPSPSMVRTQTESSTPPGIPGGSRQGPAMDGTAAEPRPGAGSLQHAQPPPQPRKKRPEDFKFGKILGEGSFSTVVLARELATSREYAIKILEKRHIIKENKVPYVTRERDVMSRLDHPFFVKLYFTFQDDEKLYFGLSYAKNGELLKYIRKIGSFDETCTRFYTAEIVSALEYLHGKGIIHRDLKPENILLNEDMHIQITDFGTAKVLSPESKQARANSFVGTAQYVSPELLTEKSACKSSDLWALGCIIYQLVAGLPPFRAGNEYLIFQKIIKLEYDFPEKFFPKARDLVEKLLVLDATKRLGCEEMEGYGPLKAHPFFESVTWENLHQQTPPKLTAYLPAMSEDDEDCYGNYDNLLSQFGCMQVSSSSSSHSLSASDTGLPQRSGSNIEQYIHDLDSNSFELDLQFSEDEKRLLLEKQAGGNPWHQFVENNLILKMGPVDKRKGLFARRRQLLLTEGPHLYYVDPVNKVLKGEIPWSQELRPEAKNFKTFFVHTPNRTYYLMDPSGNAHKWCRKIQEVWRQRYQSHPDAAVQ
MAP2K1 (human), sequence (Q02750 whole entry, looked up): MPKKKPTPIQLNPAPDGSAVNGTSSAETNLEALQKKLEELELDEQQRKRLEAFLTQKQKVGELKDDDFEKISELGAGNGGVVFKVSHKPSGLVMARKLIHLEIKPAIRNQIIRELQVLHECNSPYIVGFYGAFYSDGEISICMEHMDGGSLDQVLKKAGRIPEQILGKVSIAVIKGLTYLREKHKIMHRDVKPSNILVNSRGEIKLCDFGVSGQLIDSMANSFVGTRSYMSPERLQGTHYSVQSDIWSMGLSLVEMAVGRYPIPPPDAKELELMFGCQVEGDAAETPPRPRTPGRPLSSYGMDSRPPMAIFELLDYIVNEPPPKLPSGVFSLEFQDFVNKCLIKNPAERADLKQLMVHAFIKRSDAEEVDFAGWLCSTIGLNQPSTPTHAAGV
TBK1 (human), sequence (Q9UHD2 whole entry, looked up): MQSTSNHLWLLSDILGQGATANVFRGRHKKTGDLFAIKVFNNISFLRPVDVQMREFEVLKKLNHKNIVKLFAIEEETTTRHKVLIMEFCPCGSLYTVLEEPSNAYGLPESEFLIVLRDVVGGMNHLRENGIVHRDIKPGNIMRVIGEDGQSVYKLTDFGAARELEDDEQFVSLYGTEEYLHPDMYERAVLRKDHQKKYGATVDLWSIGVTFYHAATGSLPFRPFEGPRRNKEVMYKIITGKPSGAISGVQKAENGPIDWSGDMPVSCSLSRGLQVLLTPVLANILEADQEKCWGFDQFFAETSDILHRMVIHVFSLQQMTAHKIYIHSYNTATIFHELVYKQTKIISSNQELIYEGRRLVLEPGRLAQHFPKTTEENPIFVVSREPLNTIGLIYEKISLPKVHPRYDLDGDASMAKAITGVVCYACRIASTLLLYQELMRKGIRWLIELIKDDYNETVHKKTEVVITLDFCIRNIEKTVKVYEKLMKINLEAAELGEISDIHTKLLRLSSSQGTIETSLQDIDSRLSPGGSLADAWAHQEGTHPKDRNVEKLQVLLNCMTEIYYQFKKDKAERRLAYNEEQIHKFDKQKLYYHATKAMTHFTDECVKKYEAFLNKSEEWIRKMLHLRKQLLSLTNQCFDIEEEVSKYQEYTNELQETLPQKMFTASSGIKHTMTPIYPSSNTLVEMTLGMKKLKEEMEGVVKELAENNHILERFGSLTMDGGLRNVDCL
STK3 (human), sequence (Q13188 whole entry, looked up): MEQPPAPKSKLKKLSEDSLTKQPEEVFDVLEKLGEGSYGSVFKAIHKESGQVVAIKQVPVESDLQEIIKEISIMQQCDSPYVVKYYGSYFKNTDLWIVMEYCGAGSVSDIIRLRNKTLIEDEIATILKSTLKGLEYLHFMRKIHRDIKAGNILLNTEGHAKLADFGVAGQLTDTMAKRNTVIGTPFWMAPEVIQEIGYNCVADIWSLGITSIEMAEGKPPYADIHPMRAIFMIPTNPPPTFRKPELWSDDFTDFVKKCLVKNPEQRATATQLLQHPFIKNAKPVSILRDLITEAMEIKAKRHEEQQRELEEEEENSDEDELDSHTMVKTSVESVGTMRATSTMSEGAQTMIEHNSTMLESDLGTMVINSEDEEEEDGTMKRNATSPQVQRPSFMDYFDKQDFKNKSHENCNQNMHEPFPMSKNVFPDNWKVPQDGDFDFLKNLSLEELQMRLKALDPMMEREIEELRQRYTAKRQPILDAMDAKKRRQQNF
SGK1 (human), O00141 [S422D], sequence (O00141 whole entry S422D, looked up): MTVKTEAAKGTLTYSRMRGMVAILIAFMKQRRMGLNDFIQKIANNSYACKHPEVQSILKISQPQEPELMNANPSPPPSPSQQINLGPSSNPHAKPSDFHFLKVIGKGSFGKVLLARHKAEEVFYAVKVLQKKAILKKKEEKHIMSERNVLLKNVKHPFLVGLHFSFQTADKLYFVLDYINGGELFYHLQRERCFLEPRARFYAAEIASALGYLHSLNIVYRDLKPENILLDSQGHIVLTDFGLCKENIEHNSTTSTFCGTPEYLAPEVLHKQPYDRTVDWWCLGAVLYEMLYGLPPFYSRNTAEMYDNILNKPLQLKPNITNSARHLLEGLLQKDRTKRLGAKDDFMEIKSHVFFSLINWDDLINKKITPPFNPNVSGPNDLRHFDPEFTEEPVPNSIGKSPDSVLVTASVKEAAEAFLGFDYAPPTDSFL
AURKB (human), sequence (Q96GD4 whole entry, looked up): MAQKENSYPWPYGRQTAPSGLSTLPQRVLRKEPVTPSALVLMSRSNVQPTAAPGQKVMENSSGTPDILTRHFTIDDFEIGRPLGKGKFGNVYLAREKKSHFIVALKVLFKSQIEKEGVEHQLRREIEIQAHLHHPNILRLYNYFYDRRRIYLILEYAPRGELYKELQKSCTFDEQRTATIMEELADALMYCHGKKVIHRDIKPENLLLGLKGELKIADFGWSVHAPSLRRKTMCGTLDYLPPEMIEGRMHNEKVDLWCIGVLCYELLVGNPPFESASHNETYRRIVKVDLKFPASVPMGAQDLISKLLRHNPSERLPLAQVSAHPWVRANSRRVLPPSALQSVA
CAMKK2 (human), sequence (Q96RR4 whole entry, looked up): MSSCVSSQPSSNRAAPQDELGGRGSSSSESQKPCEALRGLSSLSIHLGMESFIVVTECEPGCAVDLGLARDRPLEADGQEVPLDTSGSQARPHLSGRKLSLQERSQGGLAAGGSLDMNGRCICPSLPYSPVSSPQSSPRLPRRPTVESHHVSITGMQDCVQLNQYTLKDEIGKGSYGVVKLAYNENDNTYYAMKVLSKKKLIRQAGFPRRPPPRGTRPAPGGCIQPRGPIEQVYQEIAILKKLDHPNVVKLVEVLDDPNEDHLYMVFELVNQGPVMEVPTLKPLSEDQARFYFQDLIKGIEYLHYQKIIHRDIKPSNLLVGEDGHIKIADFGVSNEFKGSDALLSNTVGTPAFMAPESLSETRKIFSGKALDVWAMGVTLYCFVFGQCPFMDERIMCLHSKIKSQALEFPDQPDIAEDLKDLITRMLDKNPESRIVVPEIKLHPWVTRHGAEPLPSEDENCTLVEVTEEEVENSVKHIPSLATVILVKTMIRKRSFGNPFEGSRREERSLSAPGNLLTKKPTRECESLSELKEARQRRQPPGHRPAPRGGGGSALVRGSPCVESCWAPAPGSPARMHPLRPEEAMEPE
IGF1R (human), sequence (P08069 whole entry, looked up): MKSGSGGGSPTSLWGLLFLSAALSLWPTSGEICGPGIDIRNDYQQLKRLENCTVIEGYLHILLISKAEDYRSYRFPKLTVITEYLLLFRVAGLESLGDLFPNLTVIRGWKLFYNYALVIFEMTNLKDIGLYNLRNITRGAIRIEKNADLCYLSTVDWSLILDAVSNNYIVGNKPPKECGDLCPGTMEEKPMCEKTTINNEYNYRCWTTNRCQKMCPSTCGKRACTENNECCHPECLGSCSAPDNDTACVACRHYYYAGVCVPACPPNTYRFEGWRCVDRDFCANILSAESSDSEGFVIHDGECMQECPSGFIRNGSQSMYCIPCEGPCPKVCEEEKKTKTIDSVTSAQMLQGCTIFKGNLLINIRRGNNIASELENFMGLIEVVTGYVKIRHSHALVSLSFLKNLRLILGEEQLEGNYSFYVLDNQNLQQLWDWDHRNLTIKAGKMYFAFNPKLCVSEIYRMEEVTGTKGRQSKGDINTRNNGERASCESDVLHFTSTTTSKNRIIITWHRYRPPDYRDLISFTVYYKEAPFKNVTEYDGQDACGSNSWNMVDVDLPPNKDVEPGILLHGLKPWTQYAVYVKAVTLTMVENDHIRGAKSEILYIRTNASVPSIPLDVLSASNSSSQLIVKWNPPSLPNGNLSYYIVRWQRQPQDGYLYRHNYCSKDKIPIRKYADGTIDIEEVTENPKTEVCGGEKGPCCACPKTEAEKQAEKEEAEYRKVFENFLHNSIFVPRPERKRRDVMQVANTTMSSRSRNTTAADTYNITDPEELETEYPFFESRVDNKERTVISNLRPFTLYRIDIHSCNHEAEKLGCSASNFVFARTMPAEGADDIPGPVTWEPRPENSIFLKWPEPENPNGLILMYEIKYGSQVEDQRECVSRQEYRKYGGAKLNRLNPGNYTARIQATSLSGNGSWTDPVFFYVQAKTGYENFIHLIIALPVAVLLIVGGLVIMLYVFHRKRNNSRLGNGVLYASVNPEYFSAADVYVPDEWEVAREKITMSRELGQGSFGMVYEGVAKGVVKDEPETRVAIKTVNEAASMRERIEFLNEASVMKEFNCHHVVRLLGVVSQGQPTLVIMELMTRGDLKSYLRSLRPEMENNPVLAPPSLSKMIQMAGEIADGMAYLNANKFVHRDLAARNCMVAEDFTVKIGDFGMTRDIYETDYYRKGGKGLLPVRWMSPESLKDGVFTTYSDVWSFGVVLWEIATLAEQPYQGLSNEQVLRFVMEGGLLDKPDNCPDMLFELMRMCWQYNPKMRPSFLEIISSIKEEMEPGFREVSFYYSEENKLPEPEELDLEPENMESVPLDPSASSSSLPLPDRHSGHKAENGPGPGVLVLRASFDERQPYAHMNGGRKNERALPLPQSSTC

CCC(=O)N1CCN(c2ccc(-n3c(=O)ccc4cnc5ccc(-c6cnc7ccccc7c6)cc5c43)cc2C(F)(F)F)CC1
per cent of control (AURKB (human); compound 1.0 µM): 107%
per cent of control (AURKB (human); compound 10.0 µM): 90%
per cent of control (BTK (human); compound 1.0 µM): 104%
per cent of control (BTK (human); compound 10.0 µM): 56%
per cent of control (CAMKK2 (human); compound 1.0 µM): 95%
per cent of control (CAMKK2 (human); compound 10.0 µM): 81%
per cent of control (CSK (human); compound 1.0 µM): 101%
per cent of control (CSK (human); compound 10.0 µM): 83%
per cent of control (DYRK1A (human); compound 1.0 µM): 92%
per cent of control (DYRK1A (human); compound 10.0 µM): 75%
per cent of control (EPHA2 (human); compound 1.0 µM): 120%
per cent of control (EPHA2 (human); compound 10.0 µM): 87%
per cent of control (EPHB3 (human); compound 1.0 µM): 115%
per cent of control (EPHB3 (human); compound 10.0 µM): 94%
per cent of control (GSK3B (human); compound 1.0 µM): 79%
per cent of control (GSK3B (human); compound 10.0 µM): 49%
per cent of control (IGF1R (human); compound 1.0 µM): 100%
per cent of control (IGF1R (human); compound 10.0 µM): 93%
per cent of control (MAP2K1 (human); compound 1.0 µM): 69%
per cent of control (MAP2K1 (human); compound 10.0 µM): 22%
per cent of control (MAPK12 (human); compound 1.0 µM): 103%
per cent of control (MAPK12 (human); compound 10.0 µM): 129%
per cent of control (MAPK8 (human)): 98%
per cent of control (MAPK9 (human)): 98%
per cent of control (MAPKAPK2 (human); compound 1.0 µM): 102%
per cent of control (MAPKAPK2 (human); compound 10.0 µM): 108%
per cent of control (MAPKAPK5 (human); compound 1.0 µM): 118%
per cent of control (MAPKAPK5 (human); compound 10.0 µM): 49%
per cent of control (MKNK2 (human); compound 1.0 µM): 112%
per cent of control (MKNK2 (human); compound 10.0 µM): 96%
per cent of control (MST4 (human); compound 1.0 µM): 96%
per cent of control (MST4 (human); compound 10.0 µM): 89%
per cent of control (NEK6 (human)): 100%
per cent of control (PDPK1 (human); compound 1.0 µM): 100% and 117%
per cent of control (PDPK1 (human); compound 10.0 µM): 98% and 101%
per cent of control (PIM1 (human); compound 1.0 µM): 82%
per cent of control (PIM1 (human); compound 10.0 µM): 24%
per cent of control (PKN2 (human); compound 1.0 µM): 97%
per cent of control (PKN2 (human); compound 10.0 µM): 114%
per cent of control (PLK1 (human); compound 1.0 µM): 94%
per cent of control (PLK1 (human); compound 10.0 µM): 84%
per cent of control (PRKAA1 or PRKAA2 (rat); compound 1.0 µM): 78%
per cent of control (PRKAA1 or PRKAA2 (rat); compound 10.0 µM): 93%
per cent of control (PRKCA (human); compound 1.0 µM): 83%
per cent of control (PRKCA (human); compound 10.0 µM): 68%
per cent of control (PRKCZ (human); compound 1.0 µM): 121%
per cent of control (PRKCZ (human); compound 10.0 µM): 106%
per cent of control (RPS6KA5 KD1 KD2 (human)): 86%
per cent of control ([1]; compound 1.0 µM): 79%
per cent of control ([1]; compound 10.0 µM): 60%
per cent of control (STK3 (human); compound 1.0 µM): 97%
per cent of control (STK3 (human); compound 10.0 µM): 79%
per cent of control (TBK1 (human); compound 1.0 µM): 96%
per cent of control (TBK1 (human); compound 10.0 µM): 87%
IC50 (PI4KA (human)): > 10 µM
